In patent US20050281850A1, “Cosmetic/dermatological inverse emulsions containing calcitriol and clobetasol 17-propionate” (GALDERMA S.A., priority 2004, published 2005):

Key:
Type in all cases: physicochemical
[1] = Stability of calcitriol in Miglyol 812 (HPLC assay against reference substance); details: for Calcitriol concentration measured as % relative to T0: 30 ppm in Miglyol 812, 0.4% BHT
Source text: (§1) b) Stability of Calcitriol in Miglyol 812 (Caprylic/-15 Capric Triglycerides) 30 ppm solution of calcitriol in qs 100% Miglyol 812 in the presence of 0.4% BHT. HPLC assay technique against reference substance. At the initial time (T0), it is considered that the composition comprises 100% calcitriol. Calcitriol concentration measured as % relative to T0: […]

[2] = Stability of calcitriol in Cetiol SN (HPLC assay against reference substance); details: for Calcitriol concentration measured as % relative to T0: 30 ppm in Cetiol SN, 0.4% BHT
Source text: as §1, with “c)” for “b)”, “Cetiol SN (Cetearyl Isononanoate):” for “Miglyol 812 (Caprylic/-15 Capric Triglycerides)”, “Cetiol SN (cetearyl isononanoate)” for “Miglyol 812”

[3] = Stability of calcitriol in ethanol (HPLC assay against reference substance); details: 30 ppm in absolute ethanol, 0.02% BHT
Source text: as §1, with “a)” for “b)”, “Ethanol:” for “Miglyol 812 (Caprylic/-15 Capric Triglycerides)”, “of absolute ethanol” for “Miglyol 812”, “0.02%” for “0.4%”

In the case of `C=C1/C(=C\C=C2/CCC[C@]3(C)[C@@H]([C@H](C)CCCC(C)(C)O)CC[C@@H]23)C[C@@H](O)C[C@@H]1O` [calcitriol], the “Calcitriol concentration measured as % relative to T0” value ([1]; +4° C., T2 weeks) is reported as 98.3%, the “Calcitriol concentration measured as % relative to T0” value ([1]; +4° C., T4 weeks) is reported as 105.2% and the “Calcitriol concentration measured as % relative to T0” value ([1]; +40° C., T2 weeks) is reported as 91%. The “Calcitriol concentration measured as % relative to T0” value ([1]; +40° C., T4 weeks) was 93.8%, the “Calcitriol concentration measured as % relative to T0” value ([1]; RT, T2 weeks) was 95.1% and the “Calcitriol concentration measured as % relative to T0” value ([1]; RT, T4 weeks) was 98.0%. The “Stability of calcitriol in Miglyol 812 (in words)” value ([1]; in Miglyol 812) was “good stability”, the “Calcitriol concentration measured as % relative to T0” value ([2]; +4° C., T2 weeks) was 98.6% and the “Calcitriol concentration measured as % relative to T0” value ([2]; +4° C., T4 weeks) was 98.1%. For the same molecule, the “Calcitriol concentration measured as % relative to T0” value ([2]; +40° C., T2 weeks) was 99.0%, the “Calcitriol concentration measured as % relative to T0” value ([2]; +40° C., T4 weeks) was 98.9% and the “Calcitriol concentration measured as % relative to T0” value ([2]; RT, T2 weeks) was 98.7%. The “Calcitriol concentration measured as % relative to T0” value ([2]; RT, T4 weeks) was 98.4%, the “Stability of calcitriol in Cetiol SN (in words)” value ([2]; in Cetiol SN) was “good stability” and the “Calcitriol concentration measured as % relative to T0” value ([3]; +4° C., T1 week) was 97.7%. The “Calcitriol concentration measured as % relative to T0” value ([3]; +4° C., T2 weeks) was 98.6%, the “Calcitriol concentration measured as % relative to T0” value ([3]; +4° C., T3 weeks) was 98.1% and the “Calcitriol concentration measured as % relative to T0” value ([3]; +4° C., T4 weeks) was 97.7%. The “Calcitriol concentration measured as % relative to T0” value ([3]; +30° C., T2 weeks) was 93.4%, the “Calcitriol concentration measured as % relative to T0” value ([3]; +30° C., T4 weeks) was 93.0% and the “Calcitriol concentration measured as % relative to T0” value ([3]; −18° C., T1 week) was 100.9%. The “Calcitriol concentration measured as % relative to T0” value ([3]; −18° C., T2 weeks) was 100.5%, the “Calcitriol concentration measured as % relative to T0” value ([3]; −18° C., T3 weeks) was 99.5% and the “Calcitriol concentration measured as % relative to T0” value ([3]; −18° C., T4 weeks) was 99.5%.
